Test results taken from patent US8192962B2, “Processes for detecting toxic substances” (Daikin Industries, Ltd., priority 2001, dated 2012).

Tested on: Transport facilitation protein genes
Test: DNA chip mRNA expression in yeast, transport facilitation protein genes (Table 5)
Assay type: cell-based, Saccharomyces cerevisiae S288C
Procedure, shortened: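 Value is the scanned fluorescence intensity ratio of exposed versus chemical-free cells. Log-phase S288C yeast in YPD at 25° C. received one toxic substance for two hours, dosed to slow growth without killing; Cy3/Cy5-labeled cDNA from oligo-dT-purified mRNA was hybridized to a whole-genome chip at 65° C.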

Cl[C@H]1[C@H](Cl)[C@@H](Cl)[C@@H](Cl)[C@H](Cl)[C@H]1Cl [(7), γ-hexachlorocyclohexane]
The level of expressed mRNA in the presence of chemical substance/The level of expressed mRNA in the absence of chemical substance (yeast gene YBL030C): 0.9
The level of expressed mRNA in the presence of chemical substance/The level of expressed mRNA in the absence of chemical substance (yeast gene YBL099W): 0.9
The level of expressed mRNA in the presence of chemical substance/The level of expressed mRNA in the absence of chemical substance (yeast gene YBR052C): 3.0
The level of expressed mRNA in the presence of chemical substance/The level of expressed mRNA in the absence of chemical substance (yeast gene YBR127C): 0.9
The level of expressed mRNA in the presence of chemical substance/The level of expressed mRNA in the absence of chemical substance (yeast gene YBR132C): 1.1
The level of expressed mRNA in the presence of chemical substance/The level of expressed mRNA in the absence of chemical substance (yeast gene YBR207W): 4.3
The level of expressed mRNA in the presence of chemical substance/The level of expressed mRNA in the absence of chemical substance (yeast gene YBR293W): 0.9
The level of expressed mRNA in the presence of chemical substance/The level of expressed mRNA in the absence of chemical substance (yeast gene YBR294W): 1.1
The level of expressed mRNA in the presence of chemical substance/The level of expressed mRNA in the absence of chemical substance (yeast gene YBR295W): 1.6
The level of expressed mRNA in the presence of chemical substance/The level of expressed mRNA in the absence of chemical substance (yeast gene YBR298C): 1.7
The level of expressed mRNA in the presence of chemical substance/The level of expressed mRNA in the absence of chemical substance (yeast gene YCL025C): 0.7
The level of expressed mRNA in the presence of chemical substance/The level of expressed mRNA in the absence of chemical substance (yeast gene YCL038C): 1.5
The level of expressed mRNA in the presence of chemical substance/The level of expressed mRNA in the absence of chemical substance (yeast gene YCR024C-A): 0.8
The level of expressed mRNA in the presence of chemical substance/The level of expressed mRNA in the absence of chemical substance (yeast gene YCR037C): 1.0
The level of expressed mRNA in the presence of chemical substance/The level of expressed mRNA in the absence of chemical substance (yeast gene YCR098C): 1.2
The level of expressed mRNA in the presence of chemical substance/The level of expressed mRNA in the absence of chemical substance (yeast gene YDL128W): 0.9
The level of expressed mRNA in the presence of chemical substance/The level of expressed mRNA in the absence of chemical substance (yeast gene YDL198C): 1.0
The level of expressed mRNA in the presence of chemical substance/The level of expressed mRNA in the absence of chemical substance (yeast gene YDL210W): 0.8
The level of expressed mRNA in the presence of chemical substance/The level of expressed mRNA in the absence of chemical substance (yeast gene YDL245C): 1.2
The level of expressed mRNA in the presence of chemical substance/The level of expressed mRNA in the absence of chemical substance (yeast gene YDR038C): 0.7
The level of expressed mRNA in the presence of chemical substance/The level of expressed mRNA in the absence of chemical substance (yeast gene YDR039C): 0.8
The level of expressed mRNA in the presence of chemical substance/The level of expressed mRNA in the absence of chemical substance (yeast gene YDR086C): 2.0
The level of expressed mRNA in the presence of chemical substance/The level of expressed mRNA in the absence of chemical substance (yeast gene YDR270W): 1.7
The level of expressed mRNA in the presence of chemical substance/The level of expressed mRNA in the absence of chemical substance (yeast gene YDR298C): 1.0
The level of expressed mRNA in the presence of chemical substance/The level of expressed mRNA in the absence of chemical substance (yeast gene YDR342C): 0.8
The level of expressed mRNA in the presence of chemical substance/The level of expressed mRNA in the absence of chemical substance (yeast gene YDR343C): 0.7
The level of expressed mRNA in the presence of chemical substance/The level of expressed mRNA in the absence of chemical substance (yeast gene YDR345C): 1.1
The level of expressed mRNA in the presence of chemical substance/The level of expressed mRNA in the absence of chemical substance (yeast gene YDR387C): 1.3
The level of expressed mRNA in the presence of chemical substance/The level of expressed mRNA in the absence of chemical substance (yeast gene YDR497C): 0.5
The level of expressed mRNA in the presence of chemical substance/The level of expressed mRNA in the absence of chemical substance (yeast gene YEL027W): 0.8
The level of expressed mRNA in the presence of chemical substance/The level of expressed mRNA in the absence of chemical substance (yeast gene YEL063C): 0.7
The level of expressed mRNA in the presence of chemical substance/The level of expressed mRNA in the absence of chemical substance (yeast gene YEL065W): 4.3
The level of expressed mRNA in the presence of chemical substance/The level of expressed mRNA in the absence of chemical substance (yeast gene YER053C): 2.8
The level of expressed mRNA in the presence of chemical substance/The level of expressed mRNA in the absence of chemical substance (yeast gene YFL011W): 0.8
The level of expressed mRNA in the presence of chemical substance/The level of expressed mRNA in the absence of chemical substance (yeast gene YFL041W): 3.4
The level of expressed mRNA in the presence of chemical substance/The level of expressed mRNA in the absence of chemical substance (yeast gene YFL050C): 0.8
The level of expressed mRNA in the presence of chemical substance/The level of expressed mRNA in the absence of chemical substance (yeast gene YFL054C): 1.1
The level of expressed mRNA in the presence of chemical substance/The level of expressed mRNA in the absence of chemical substance (yeast gene YGL006W): 1.3
The level of expressed mRNA in the presence of chemical substance/The level of expressed mRNA in the absence of chemical substance (yeast gene YGL008C): 1.4
The level of expressed mRNA in the presence of chemical substance/The level of expressed mRNA in the absence of chemical substance (yeast gene YGL104C): 1.2
The level of expressed mRNA in the presence of chemical substance/The level of expressed mRNA in the absence of chemical substance (yeast gene YGL167C): 1.2
The level of expressed mRNA in the presence of chemical substance/The level of expressed mRNA in the absence of chemical substance (yeast gene YGL255W): 1.0
The level of expressed mRNA in the presence of chemical substance/The level of expressed mRNA in the absence of chemical substance (yeast gene YGR055W): 0.6
The level of expressed mRNA in the presence of chemical substance/The level of expressed mRNA in the absence of chemical substance (yeast gene YGR065C): 2.4
The level of expressed mRNA in the presence of chemical substance/The level of expressed mRNA in the absence of chemical substance (yeast gene YGR082W): 0.9
The level of expressed mRNA in the presence of chemical substance/The level of expressed mRNA in the absence of chemical substance (yeast gene YGR096W): 0.9
The level of expressed mRNA in the presence of chemical substance/The level of expressed mRNA in the absence of chemical substance (yeast gene YGR138C): 0.7
The level of expressed mRNA in the presence of chemical substance/The level of expressed mRNA in the absence of chemical substance (yeast gene YGR191W): 0.7
The level of expressed mRNA in the presence of chemical substance/The level of expressed mRNA in the absence of chemical substance (yeast gene YGR197C): 1.3
The level of expressed mRNA in the presence of chemical substance/The level of expressed mRNA in the absence of chemical substance (yeast gene YGR224W): 0.4
